{
  "source": "patent US20260097043A1",
  "about": "“NOVEL FORMULATIONS AND VEHICLES” (WisTa Laboratories Ltd., priority 2022, published 2026)",
  "key": {"[1]": {"system": "TDP-43", "settings": "0.05 μM MT; SH-SY5Y cells; Yamashita et al 2009; cited from earlier work"}, "[2]": {"system": "huntingtin derivative containing a polyglutamine stretch of 102 residues", "settings": "tested at 0, 10 and 100 μM; zebrafish; van Bebber et al. 2010; cited from earlier work"}, "[3]": {"assay_type": "in vivo, human", "settings": "4 mg MTC approximately twice weekly; MCI to moderate AD", "method": "Prior-filed PCT/EP2023/064369 (Example 3) describes the structure of a phase 3 clinical trial in mild to moderate AD in which different arms of participants were treated with MTC and LMTM respectively. This was a Phase 3, randomized, double-blind, outpatient trial to evaluate the safety, efficacy, and tolerability of LMTM in participants with severity ranging from mild cognitive impairment (MCI) to moderate AD. The MTC minipill was intended as a urinary discolourant placebo (in combination with a true placebo i.e. a blank minipill lacking any MTC or LMTM). […] Of patients receiving MTC 4 mg twice weekly, the majority (85%) were unexpectedly found to have blood levels of active drug above the threshold needed to produce a clinical effect."}, "[4]": {"settings": "4 mg twice weekly; prior-filed PCT/EP2023/064369; cited from earlier work"}, "[5]": {"settings": "Baddeley et al., 2015, cited from earlier work"}},
  "data": [
    {"smiles": "CN(C)c1ccc2nc3ccc(N(C)C)cc3[s+]c2c1", "note": "[MT, N3,N3,N7,N7-tetramethylphenothiazin-5-ium-3,7-diamine]", "values": [
      {"measurement": "reduction of the number of TDP-43 aggregates", "setting": "[1]", "value": 50, "unit": "%"},
      {"measurement": "formation of huntingtin polyglutamine aggregates", "setting": "[2]", "value": "prevented the formation of such aggregates in zebrafish in a dose dependent manner"}
    ]},
    {"smiles": "CN(C)c1ccc2nc3ccc(N(C)C)cc3[s+]c2c1", "note": "[MTC, 3,7-bisdimethylaminophenazothionium chloride]", "values": [
      {"measurement": "clinical benefit", "setting": "[3]", "value": "showed clinical benefit"},
      {"measurement": "therapeutic benefits in treating Alzheimer's disease", "setting": "[4]", "value": "showed therapeutic benefits"}
    ]},
    {"smiles": "CN(C)c1ccc2c(c1)Sc1cc(N(C)C)ccc1N2", "note": "[LMTM, leuco-methylthioninium bis(hydromethanesulfonate)]", "values": [
      {"measurement": "pharmaceutic properties (solubility and pKa)", "setting": "[5]", "value": "superior pharmaceutic properties in terms of solubility and pKa"},
      {"measurement": "absorption limitations", "setting": "[5]; compared with the MT+ form", "value": "not subject to the absorption limitations of the MT^+ form"}
    ]}
  ]
}
